Source: EPA's ToxValDB 9.5 (doi:10.2903/j.efsa.2016.4574)
Values after ≈ are worked out from the molar mass of the structure shown.

Key:
Tagia sp. = conditions: for LC50: acute, duration: 14 days, mortality; for NOEC: chronic/long-term, duration: 56 days, growth
Oncorhynchus mykiss = conditions: acute; duration: 96 hours; mortality
Folsomia candida = conditions: chronic/long-term; duration: 28 days; mortality
Hypoaspis aculeifer = conditions: chronic/long-term; duration: 14 days; mortality
Typhlodromus pyri = assay: LR50; higher = less toxic; conditions: not reported; no effects
Oryctolagus sp. = conditions: reproduction developmental; body weight
Apis mellifera = conditions: acute, duration: 48 hours, mortality
Pimephales promelas = conditions: chronic/long-term; duration: 28 days; growth
Daphnia magna = conditions: chronic/long-term; duration: 21 days
Coturnix japonica = conditions: acute; oral; mortality
Lepomis macrochirus = conditions: acute; duration: 96 hours; mortality
Colinus virginianus = conditions: chronic
Canidae = conditions: Dog Other, clinical chemistry

Structure (SMILES) | LC50 (Tagia sp.) | NOEC (Tagia sp.) | LC50 (Oncorhynchus mykiss) | NOEC (Folsomia candida) | NOEC (Hypoaspis aculeifer) | LR50 (Typhlodromus pyri) | LD50 (Rattus norvegicus; acute, oral, mortality) | NOAEL (Rattus norvegicus; chronic, duration: 2 years, M, histopathology: neoplastic) | NOEL (Rattus norvegicus; reproduction developmental, body weight) | NOAEL (Oryctolagus sp.) | LD50 (Apis mellifera; dermal) | LD50 (Apis mellifera; oral, unspecified) | NOEC (Pimephales promelas) | NOEC (Daphnia magna) | LD50 (Coturnix japonica) | LC50 (Lepomis macrochirus) | NOEL (Colinus virginianus) | NOAEL (Canidae; chronic, duration: 1 years, oral) | NOAEL (Canidae; subchronic, duration: 90 days)
C=CCNC(=O)c1c([Si](C)(C)C)sc(C(=O)O)c1C [Silthiofam allyl acid] | > 466 mg/kg | 0.207 mg/kg | > 113 mg/L | 0.207 mg/kg | 0.207 mg/kg | – | – | – | – | – | – | – | – | – | – | – | – | – | –
Cc1c(C(=O)O)sc([Si](C)(C)C)c1C(N)=O [Silthiofam amide acid] | > 460 mg/kg | 0.194 mg/kg | > 110 mg/L | 0.194 mg/kg | 0.194 mg/kg | – | – | – | – | – | – | – | – | – | – | – | – | – | –
C=CCNC(=O)c1c([Si](C)(C)C)sc(C)c1C [Silthiofam] | 66.5 mg/kg | 30 mg/kg | – | 1.33 mg/kg | – | > 40 g/ha | > 5000 mg/kg | 5 mg/kg-day | 23.5 mg/kg-day | 20 mg/kg-day | > 100 µg/piece | > 106 µg/piece | 0.89 mg/L | 0.47 mg/L | > 2250 mg/kg-day | 11 mg/L (≈ 41.1 µM) | 250 mg/kg-day | 10 mg/kg-day | 10 mg/kg-day
